The target of the test is T1, LRRK2 kinase in SH-SY5Y cells over-expressing recombinant full length LRRK2 (Homo sapiens, UniProt Q5S007).
T1 construct: A BacMam virus expressing full length recombinant LRRK2 was purchased from Invitrogen; host or cells: SH-SY5Y human neuroblastoma cells transduced with BacMam LRRK2 virus
Briefly: Recombinant cellular LRRK2 AlphaScreen assay (LRRK2 Ser935 phosphorylation). It is filed as cell-based. The conditions noted are these: 60 min. The source says:
b. Recombinant Cellular LRRK2 AlphaScreen Assay
To determine the activity of compounds against LRRK2 kinase in cells, the observed LRRK2 kinase-dependent modulation of LRRK2 Ser 935 phosphorylation (Dzamko et al., 2010, Biochem. J. 430: 405-413) was utilized to develop a quantitative 384 well plate-based immunoassay of LRRK2 Ser935 phosphorylation in the human neuroblastoma cell line SH-SY5Y, engineered to over-express recombinant full length LRRK2 protein.
A BacMam virus expressing full length recombinant LRRK2 was purchased from Invitrogen and amplified by inoculation of SF-9 cells at MOI 0.3 for 4-5 days in Sf-900 III SFM medium supplemented with 3% fetal bovine serum. Infected cell cultures were then centrifuged at 2000 g for 20 minutes, viral supernatant titer determined by anti-gp64 plaque assay and stored at 4° C.
Affinity-purified anti-phospho LRRK2 Ser935 sheep polyclonal antibody (Dzamko et al., 2010, Biochem. J. 430: 405-413) was biotinylated by standard methods (PerkinElmer). Anti-LRRK2 rabbit polyclonal antibody was purchased from Novus Biologicals. AlphaScreen Protein A IgG Kit (including acceptor and donor beads) was purchased from Perkin Elmer.
SH-SY5Y cells were grown in DMEM/F12 medium with 10% dialysed fetal bovine serum and harvested by treatment with 0.5% trypsin-EDTA for 5 minutes at 37° C. followed by centrifugation at 1000 rpm for 4 minutes. The cell pellet was resuspended in Opti-MEM reduced serum media (Invitrogen) at 200,000 cells/ml and mixed with the BacMam LRRK2 virus at M01=50. 50 μl cell solutions were then dispensed to each well of a 384-well plate and incubated at 37° C., 5% CO2 for 24 hours.
Compounds were prepared at 10× final assay concentration as 11 point 1 in 4 serial I dilutions in Opti-MEM reduced serum medium (Invitrogen 31985070) containing 1% DMSO. On the day of assay, 5.5 μl of the compound solutions were transferred from the compound plate to the cell assay plate to achieve a top final assay concentration of 10 uM. DMSO (0.1% final assay concentration) was added to column 6 and 2-(benzyloxy)-5-methyl-4-(1-methyl-1H-pyrazol-4-yl)-N-(pyridin-3-yl)benzamide (2 μM final assay concentration) was added to column 18 to serve as 0% and 100% inhibition controls, respectively.
Cells were incubated at 37° C., 5% CO2 for 60 minutes. The medium was then removed and cells lysed by addition of 20 μl of cell lysis buffer (Cell Signaling Technology) and incubation at 4° C. for 20 minutes. 10 μl of antibody/acceptor bead mix [(1/1000 biotinylated-pS935 LRRK2 antibody, 1/1000 total-LRRK2 antibody, 1/100 Acceptor beads in AlphaScreen detection buffer (25 mM Hepes (pH 7.4), 0.5% Triton X-100, 1 mg/ml Dextran 500 and 0.1% BSA)] was then added to each well and plates incubated for 2 hours at ambient temperature in the dark. 10 μl of donor beads solution (1/33.3 donor beads in AlphaScreen detection buffer) was then added to each well. Following incubation for a further 2 hours at ambient temperature in the dark, plates were read on an EnVision™ plate reader at emission 520-620 nm with excitation 680 nm. Dose response curve data was based on a sigmoidal dose-response model.
(Bead proximity is the source of the signal in Alpha formats.)

The text below walks through data of patent publication US20200392158A1, “INHIBITORS OF LEUCINE RICH REPEAT KINASE 2” (GLAXOSMITHKLINE INTELLECTUAL PROPERTY DEVELOPMENT LIMITED, priority 2017, published 2020).

The structures appear in SMILES notation. Where a name gives a salt, the structure may show the parent alone.

T1 sequence (Q5S007 whole entry): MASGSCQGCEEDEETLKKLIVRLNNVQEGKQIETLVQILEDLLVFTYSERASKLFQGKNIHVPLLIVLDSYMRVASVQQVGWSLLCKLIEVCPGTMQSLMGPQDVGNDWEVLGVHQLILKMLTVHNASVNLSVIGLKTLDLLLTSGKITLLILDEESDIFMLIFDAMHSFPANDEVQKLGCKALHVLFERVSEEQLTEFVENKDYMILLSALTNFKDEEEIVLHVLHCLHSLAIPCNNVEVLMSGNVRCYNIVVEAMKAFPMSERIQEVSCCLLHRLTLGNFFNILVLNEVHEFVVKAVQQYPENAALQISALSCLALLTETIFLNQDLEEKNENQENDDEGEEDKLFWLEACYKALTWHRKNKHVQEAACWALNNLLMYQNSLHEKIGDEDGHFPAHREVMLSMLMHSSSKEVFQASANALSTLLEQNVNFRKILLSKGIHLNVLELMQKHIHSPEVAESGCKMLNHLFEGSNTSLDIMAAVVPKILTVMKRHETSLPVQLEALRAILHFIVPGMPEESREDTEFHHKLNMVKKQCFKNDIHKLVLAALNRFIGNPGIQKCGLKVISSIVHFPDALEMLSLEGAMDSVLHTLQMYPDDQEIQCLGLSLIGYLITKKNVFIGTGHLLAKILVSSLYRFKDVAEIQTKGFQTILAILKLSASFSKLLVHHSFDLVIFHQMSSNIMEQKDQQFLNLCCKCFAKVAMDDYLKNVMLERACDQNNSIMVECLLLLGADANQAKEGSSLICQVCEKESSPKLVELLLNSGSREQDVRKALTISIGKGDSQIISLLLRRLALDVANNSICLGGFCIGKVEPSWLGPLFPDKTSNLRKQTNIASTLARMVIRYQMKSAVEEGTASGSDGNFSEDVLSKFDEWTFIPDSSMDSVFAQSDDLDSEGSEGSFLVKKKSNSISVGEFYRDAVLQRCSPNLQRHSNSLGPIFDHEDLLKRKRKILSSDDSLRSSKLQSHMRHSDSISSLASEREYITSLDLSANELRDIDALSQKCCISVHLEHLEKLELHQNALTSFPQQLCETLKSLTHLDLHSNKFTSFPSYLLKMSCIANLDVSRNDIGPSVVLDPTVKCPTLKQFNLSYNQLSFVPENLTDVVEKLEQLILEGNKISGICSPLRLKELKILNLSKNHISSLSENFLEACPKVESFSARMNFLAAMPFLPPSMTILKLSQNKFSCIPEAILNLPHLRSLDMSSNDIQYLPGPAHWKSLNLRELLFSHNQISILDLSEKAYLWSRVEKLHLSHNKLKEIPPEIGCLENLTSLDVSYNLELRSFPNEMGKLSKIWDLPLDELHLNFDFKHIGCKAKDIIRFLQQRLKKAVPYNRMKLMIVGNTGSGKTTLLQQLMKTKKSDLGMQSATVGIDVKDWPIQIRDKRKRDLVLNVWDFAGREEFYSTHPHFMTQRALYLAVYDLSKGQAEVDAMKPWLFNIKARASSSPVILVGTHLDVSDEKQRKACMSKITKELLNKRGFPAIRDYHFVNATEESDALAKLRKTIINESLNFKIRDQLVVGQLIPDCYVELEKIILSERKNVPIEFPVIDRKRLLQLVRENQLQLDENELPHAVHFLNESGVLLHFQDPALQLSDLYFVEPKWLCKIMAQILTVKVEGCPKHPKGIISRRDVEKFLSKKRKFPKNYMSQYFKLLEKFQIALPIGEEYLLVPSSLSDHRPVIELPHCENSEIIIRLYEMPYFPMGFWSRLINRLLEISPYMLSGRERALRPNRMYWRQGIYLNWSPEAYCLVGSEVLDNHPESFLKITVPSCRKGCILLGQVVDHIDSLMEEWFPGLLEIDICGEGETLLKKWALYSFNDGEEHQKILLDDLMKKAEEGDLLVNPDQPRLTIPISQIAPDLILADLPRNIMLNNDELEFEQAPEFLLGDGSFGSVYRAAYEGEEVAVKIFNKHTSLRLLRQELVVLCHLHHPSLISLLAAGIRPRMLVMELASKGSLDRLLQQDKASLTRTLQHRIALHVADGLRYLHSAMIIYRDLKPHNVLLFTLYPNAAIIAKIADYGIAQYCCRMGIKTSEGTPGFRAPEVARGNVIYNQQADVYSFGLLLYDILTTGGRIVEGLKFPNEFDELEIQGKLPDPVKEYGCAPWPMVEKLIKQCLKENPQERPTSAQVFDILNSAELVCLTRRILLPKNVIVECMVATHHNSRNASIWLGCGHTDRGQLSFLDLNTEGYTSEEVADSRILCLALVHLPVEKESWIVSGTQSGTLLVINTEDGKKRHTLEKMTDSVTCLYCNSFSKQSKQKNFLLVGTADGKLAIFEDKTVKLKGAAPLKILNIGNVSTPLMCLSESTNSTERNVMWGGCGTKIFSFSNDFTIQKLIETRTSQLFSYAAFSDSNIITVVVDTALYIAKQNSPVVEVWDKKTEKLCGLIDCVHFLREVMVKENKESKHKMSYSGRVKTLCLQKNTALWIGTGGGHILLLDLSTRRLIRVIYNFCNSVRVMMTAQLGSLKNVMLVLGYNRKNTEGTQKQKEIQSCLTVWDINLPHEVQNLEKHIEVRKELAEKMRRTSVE

Consider `Cc1c2c(nn1C1CCC(N3CCOCC3)CC1)OCCCNc1nc(ncc1Cl)N2` (single isomer, unassigned) [E380, 14-Chloro-4-methyl-5-[4-(morpholin-4-yl)cyclohexyl]-8-oxa-2,5,6,12,16,17-hexaazatricyclo [11.3.1.0^3,7]heptadeca-1(16),3,6,13(17),14-pentaene], for which the IC50 was not above 100 nM.

Turning to `Cc1c2c(nn1CC1CCOCC1)OCCCNc1nc(ncc1Cl)N2` [E338, 14-Chloro-4-methyl-5-(oxan-4-ylmethyl)-8-oxa-2,5,6,12,16,17-hexaazatricyclo[11.3.1.0^3,7]heptadeca-1(16),3,6,13(17),14-pentaene], the half-maximal inhibitory concentration (IC50) was not above 100 nM.

`Cc1c2c(nn1C1CCC(N3CCC(F)C3)CC1)OCCCNc1nc(ncc1Cl)N2` (single isomer, unassigned) [E152, 14-Chloro-5-[4-(3-fluoropyrrolidin-1-yl)cyclohexyl]-4-methyl-8-oxa-2,5,6,12,16,17-hexaazatricyclo[11.3.1. 0^3,7]heptadeca-1(16),3,6,13(17),14-pentaene]: the IC50 is not above 100 nM.

Turning to `Cc1c2c(nn1C1CCOCC1F)OCCCNc1nc(ncc1Cl)N2` (single isomer, unassigned) [E233, 14-Chloro-5-(3-fluorooxan-4-yl)-4-methyl-8-oxa-2,5,6,12,16,17-hexaazatricyclo[11.3.1.0^3,7]heptadeca-1(16),3,6,13 (17),14-pentaene], the IC50 was not above 100 nM.

As for `Cc1c2c(nn1C1CCOCC1)OCC(OC(F)F)CNc1nc(ncc1Cl)N2` (single isomer, unassigned) [E284, 14-Chloro-10-(difluoromethoxy)-4-methyl-5-(oxan-4-yl)-8-oxa-2,5,6,12,16,17-hexaazatricyclo[11.3.1.0^3,7] heptadeca-1(16),3,6,13(17),14-pentaene], the IC50 is not above 100 nM.

As to `COCCN1CCC(n2nc3c(c2C)Nc2ncc(Cl)c(n2)NCCCO3)C(F)C1` (single isomer, unassigned) [E59, trans-14-chloro-5-[3-fluoro-1-(2-methoxyethyl)piperidin-4-yl]-4-methyl-8-oxa-2,5,6,12,16,17-hexaazatricyclo[11.3.1.0^3,7]heptadeca 1(16),3,6,13(17),14-pentaene], the half-inhibitory concentration (IC50) was not above 100 nM.

For `Cc1c2c(nn1C1CCN(C3CCOC3)CC1)OCC[C@@H](C)Nc1nc(ncc1Cl)N2` (single isomer, unassigned) [E383], the 50% inhibitory concentration (IC50) was not above 100 nM.

For the compound `Cc1c2c(nn1C1COC1)OCC(F)CNc1nc(ncc1Cl)N2` (single isomer, unassigned) [E322, 14-Chloro-10-fluoro-4-methyl-5-(oxetan-3-yl)-8-oxa-2,5,6,12,16,17-hexaazatricyclo[11.3.1.0^3,7]heptadeca-1(16),3,6,13(17),14-pentaene], the IC50 is not above 100 nM.

As to `Cc1c2c(nn1C1CCC(N3CCOCC3)CC1)OCCC(C)Nc1nc(ncc1Cl)N2` (single isomer, unassigned) [E150], the 50% inhibitory concentration (IC50) is not above 100 nM.

Regarding `COC1CNc2nc(ncc2C(F)(F)F)Nc2c(nn(C3CCCOC3)c2C)OC1` (single isomer, unassigned) [E227, 10-Methoxy-4-methyl-5-(oxan-3-yl)-14-(trifluoromethyl)-8-oxa-2,5,6,12,16,17-hexaazatricyclo [11.3.1.0^3,7] heptadeca-1(17),3,6,13,15-pentaene], the IC50 is not above 100 nM.

In the case of `Cc1c2c(nn1C1CC(C)OC(C)C1)OCCC(C)Nc1nc(ncc1Cl)N2` (single isomer, unassigned) [E194, 14-Chloro-5-(2,6-dimethyloxan-4-yl)-4,11-dimethyl-8-oxa-2,5,6,12,16,17-hexaazatricyclo[11.3.1.0^3,7] heptadeca-1(16),3,6,13(17),14-pentaene], the IC50 is not above 100 nM.

Take `Cc1c2c(nn1C1CCOCC1)OCCCNc1nc(ncc1C(C)(C)C)N2` [E441, 14-tert-Butyl-4-methyl-5-(oxan-4-yl)-8-oxa-2,5,6,12,16,17-hexaazatricyclo[11.3.1.0^3,7]heptadeca-1(16),3,6,13(17),14-pentaene]: the concentration for half-maximal inhibition (IC50) was more than 10000 nM.

Turning to `Cc1c2c(nn1C1CCOCC1F)OCC(F)CNc1nc(ncc1Cl)N2` (single isomer, unassigned) [E334, 14-Chloro-10-fluoro-5-(3-fluorooxan-4-yl)-4-methyl-8-oxa-2,5,6,12,16,17-hexaazatricyclo[11.3.1.0^3,7] heptadeca-1(16),3,6,13(17),14-pentaene], the IC50 was not above 100 nM.

Take `Cc1c2c(nn1C1CCOCC1)OCC(C)CNc1nc(ncc1Cl)N2` (stereo not drawn) [E135, 14-Chloro-4,10-dimethyl-5-(oxan-4-yl)-8-oxa-2,5,6,12,16,17-hexaazatricyclo[11.3.1.0^3,7]heptadeca-1(16),3,6,13(17),14-pentaene]: the concentration for half-maximal inhibition (IC50) was not above 100 nM.

With `Cc1c2c(nn1C1CCC(F)(F)CC1)OCCCNc1nc(ncc1Cl)N2` [E142, 14-Chloro-5-(4,4-difluorocyclohexyl)-4-methyl-8-oxa-2,5,6,12, 16,17-hexaazatricyclo[11.3.1.0^3,7]heptadeca-1(16),3,6,13(17),14-pentaene], the IC50 was not above 100 nM.

On to `COC1CNc2nc(ncc2Cl)Nc2c(nn(C3CCOCC3)c2Cl)OC1` (stereo not drawn) [E339, 4,14-Dichloro-10-methoxy-5-(oxan-4-yl)-8-oxa-2,5,6,12,16,17-hexaazatricyclo[11.3.1.0^3,7]heptadeca-1(16),3,6,13(17),14-pentaene], for which the IC50 is not above 100 nM.

`Cc1c2c(nn1C1CCOCC1C)OCCCNc1nc(ncc1Cl)N2` (single isomer, unassigned) [E412]: the half-inhibitory concentration (IC50) was not above 100 nM.

For the compound `C[C@@H]1CCOc2nn(C3CN(C4COCCC4(F)F)C3)c(Cl)c2Nc2ncc(Cl)c(n2)N1` (stereo partly drawn) [E440, (11R)-4,14-Dichloro-5-[1-(4,4-difluorooxan-3-yl)azetidin-3-yl]-11-methyl-8-oxa-2,5,6,12,16,17-hexaazatricyclo[11.3.1.0^3,7]heptadeca-1(16),3,6,13(17),14-pentaene, TFA salt], the half-maximal inhibitory concentration (IC50) is not above 100 nM.

Regarding `Cc1c2c(nn1C1CCOCC1)OCC[C@@H](C)N(C)c1nc(ncc1Cl)N2` [E359, (11R)-14-Chloro-4,11,12-trimethyl-5-(oxan-4-yl)-8-oxa-2,5,6,12,16,17-hexaazatricyclo[11.3.1.0^3,7]heptadeca-1(16),3,6,13(17),14-pentaene], the IC50 is not above 100 nM.

For `Cc1c2c(nn1C(C)(C)CO)OCCCNc1nc(ncc1Cl)N2` [E451, 2-{14-Chloro-4-methyl-8-oxa-2,5,6,12,16,17-hexaazatricyclo[11. 3.1.0^3,7]heptadecal 1(16),3,6,13(17),14-pentaen-5-yl}-2-methylpropan-1-ol], the IC50 is not above 100 nM.

Turning to `Cc1c2c(nn1C)OCCCNc1nc(ncc1Cl)N2` [E108, 14-Chloro-4,5-dimethyl-8-oxa-2,5,6,12,16,17-hexaazatricyclo [11.3.1.0^3,7]heptadeca-1(16),3,6,13(17),14-pentaene], the IC50 is not above 100 nM.

Consider `COC1CNc2nc(ncc2C(F)(F)F)Nc2c(nn(C3CCOCC3)c2C)OC1` (stereo not drawn) [E119, 10-Methoxy-4-methyl-5-(oxan-4-yl)-14-(trifluoromethyl)-8-oxa-2,5,6,12,16,17-hexaazatricyclo[11.3.1.0^3,7]heptadeca-1(16),3,6, 13(17),14-pentaene], for which the 50% inhibitory concentration (IC50) was not above 100 nM.

Consider `Cc1c2c(nn1C1(C)CCOCC1)OCCCNc1nc(ncc1Cl)N2` [E436, 14-Chloro-4-methyl-5-(4-methyloxan-4-yl)-8-oxa-2,5,6,12,16,17-hexaazatricyclo[11.3.1.0^3,7]heptadeca-1(16),3,6,13(17),14-pentaene], for which the IC50 is not above 100 nM.

For `Cc1c2c(nn1C1COCCC1F)OCCCNc1nc(ncc1Cl)N2` (single isomer, unassigned) [E86, 14-chloro-5-[4-fluorooxan-3-yl]-4-methyl-8-oxa-2,5,6,12,16,17-hexaazatricyclo [11.3.1.0^3,7]heptadeca-1(16),3,6,13(17),14-pentaene], the IC50 is not above 100 nM.

As usually defined, the IC50 is the concentration that gives 50% inhibition.
